According to patent US20100137309A1, “FUNGICIDES PHENYL-PYRIMIDNYL-AMINO DERIVATIVES” (priority 2007, published 2010):

System: Sphaerotheca fuliginea
Assay: In vivo test on Sphaerotheca fuliginea (cucurbits powdery mildew), DMF/emulsifier preparation (Example B)
Settings: 500 ppm; young cucurbit plants sprayed preventively one day before inoculation; grading 7 days after contamination
Procedure: In Vivo Test on Sphaerotheca fuliginea (Cucurbits Powdery Mildew) To produce a suitable preparation of active compound, 1 part by weight of active compound is mixed with 49 parts by weight of solvent (N,N-dimethylformamide) and 1 part by weight of emulsifier (alkylarylpolyglycolether), and the concentrate is diluted with water to the desired concentration. To test for preventive activity, young cucurbit plants are sprayed with the preparation of active compound at the stated rate of application. One day after this treatment, the plants are inoculated with an aqueous spore suspension of Sphaerotheca fuliginea. […] Grading is carried out 7 days after the contamination, in comparison with the control plants. […] A16.

With COCCOC(=O)c1cc(-c2ccnc(Nc3cccc(OC)c3)n2)ccn1 [Compound A16] the good protection was “at least 70%”.

System: not listed separately
Assay: Log p of the compounds of Table A
Settings: not given

In order of falling logP:
1. CC(C)CCNC(=O)c1cc(-c2ccnc(Nc3cccc(Cl)c3)n2)ccn1 [Compound A19, 4-{2-[(3-chlorophenyl)amino]pyrimidin-4-yl}-N-(3-methylbutyl)pyridine-2-carboxamide]  4.7
2. O=C(NCCCN1CCCCCC1=O)c1cc(-c2ccnc(Nc3cccc(Cl)c3)n2)ccn1 [Compound A1, 4-{2-[(3-chlorophenyl)amino]pyrimidin-4-yl}-N-[3-(2-oxoazepan-1-yl)propyl]pyridine-2-carboxamide]  2.98

Same assay, conditions: Table A

In order of falling Log p:
1. CCC(CC)NC(=O)c1cc(-c2ccnc(Nc3cccc(Cl)c3)n2)ccn1 [Compound A44]  4.72
2. CCOC1CCC(NC(=O)c2cc(-c3ccnc(Nc4cccc(Cl)c4)n3)ccn2)CC1 (stereo not shown) [Compound A61]  4.54
3. O=C(NC1CCCC1)c1cc(-c2ccnc(Nc3cccc(Cl)c3)n2)ccn1 [Compound A40]  4.48
4. CCCCNC(=O)c1cc(-c2ccnc(Nc3cccc(Cl)c3)n2)ccn1 [Compound A58]  4.31
5. CCC(C)NC(=O)c1cc(-c2ccnc(Nc3cccc(Cl)c3)n2)ccn1 (stereo not shown) [Compound A46]  4.3
6. O=C(NC1CCC1)c1cc(-c2ccnc(Nc3cccc(Cl)c3)n2)ccn1 [Compound A47]  4.1
7. CCC(COC)NC(=O)c1cc(-c2ccnc(Nc3cccc(Cl)c3)n2)ccn1 (stereo not shown) [Compound A45]  4.02
8. CC(C)NC(=O)c1cc(-c2ccnc(Nc3cccc(Cl)c3)n2)ccn1 [Compound A57]  3.83
9. CCCNC(=O)c1cc(-c2ccnc(Nc3cccc(Cl)c3)n2)ccn1 [Compound A56]  3.8
10. COCCCNC(=O)c1cc(-c2ccnc(Nc3cccc(Cl)c3)n2)ccn1 [Compound A39]  3.31
11. CNC(=O)c1cc(-c2ccnc(Nc3cccc(Cl)c3)n2)ccn1 [Compound A59]  2.94
12. O=C(NC1CCS(=O)(=O)C1)c1cc(-c2ccnc(Nc3cccc(Cl)c3)n2)ccn1 (stereo not shown) [Compound A60]  2.8
13. CC(CN(C)C)NC(=O)c1cc(-c2ccnc(Nc3cccc(Cl)c3)n2)ccn1 (stereo not shown) [Compound A38]  1.81

System: not listed separately
Assay: Log p of the compounds of Table A
Settings: not given
Remark: another data set of the same source

In order of falling logP:
1. CON=C(C)c1cc(-c2ccnc(Nc3cccc(Cl)c3)n2)ccn1 [Compound A93, N-(3-chlorophenyl)-4-{2-[-N-methoxyethanimidoyl]pyridin-4-yl}pyrimidin-2-amine]  4.46
2. CC(=O)c1cc(-c2ccnc(Nc3cccc(Cl)c3)n2)ccn1 [Compound A110, 1-(4-{2-[(3-chlorophenyl)amino]pyrimidin-4-yl}pyridin-2-yl)ethanone]  3.5
3. CCN(CC)C(=O)c1cc(-c2ccnc(Nc3cccc(Cl)c3)n2)ccn1 [Compound A77, 4-{2-[(3-chlorophenyl)amino]pyrimidin-4-yl}-N,N-diethylpyridine-2-carboxamide]  3.19
4. CN(C)C(=O)c1cc(-c2ccnc(Nc3cccc(Cl)c3)n2)ccn1 [Compound A76, 4-{2-[(3-chlorophenyl)amino]pyrimidin-4-yl}-N,N-dimethylpyridine-2-carboxamide]  2.5
5. CC(=NNCCC#N)c1cc(-c2ccnc(Nc3cccc(Cl)c3)n2)ccn1 [Compound A108, 3-{2-[1-(4-{2-[(3-chlorophenyl)amino]pyrimidin-4-yl}pyridin-2-yl)ethylidene]hydrazinyl}propanenitrile]  2.44

System: not listed separately
Assay: Log p of the compounds of Table A
Settings: not given
Remark: another data set of the same source

In order of rising Log p:
1. COCCN(C)C(=O)c1cc(-c2ccnc(Nc3cc(F)ccc3F)n2)ccn1 [Compound A230]  2.52
2. CCN(C)C(=O)c1cc(-c2ccnc(Nc3cc(Cl)ccc3F)n2)ccn1 [Compound A232]  2.94
3. CCCN(CC)C(=O)c1cc(-c2ccnc(Nc3cc(Cl)ccc3F)n2)ccn1 [Compound A234]  3.69
4. CCCCN(C)C(=O)c1cc(-c2ccnc(Nc3cccc(C(C)C)c3)n2)ccn1 [Compound A262]  4.04
5. CCCN(CC1CC1)C(=O)c1cc(-c2ccnc(Nc3cc(Cl)ccc3F)n2)ccn1 [Compound A242]  4.20

System: not listed separately
Assay: Log p of the compounds of Table A
Settings: not given
Remark: another data set of the same source

With CC(C)N(C)C(=O)c1cc(-c2ccnc(Nc3ccc(N4CCCC4=O)cc3)n2)ccn1 [Compound A325] the Log p was 2.04.

System: not listed separately
Assay: Log p determination of the compounds of Table A
Settings: not given

In the case of CCN(CC)C(=S)c1cc(-c2ccnc(Nc3cccc(Cl)c3)n2)ccn1 [Compound A391, 4-{2-[(3-chlorophenyl)amino]pyrimidin-4-yl}-N,N-diethylpyridine-2-carbothioamide], the logP is reported as 3.19.
